Laboratory results from patent US10111893B2, “Calmangafodipir, a new chemical entity, and other mixed metal complexes, methods of preparation, compositions, and methods of treatment” (priority 2012, dated 2018).
Where two headings read alike, the source gives them in different places.

Assays:
[1] = test system: CT26 (mouse colon carcinoma) cells; assay: MTT viability assay, cytotoxic activity; conditions: 48 h, 1-1,000 μM
Description: The viability of cells was measured using the MTT assay. […] The viability of the cells was then assessed by adding 5 mg/ml methylthiazoletetrazolium (MTT) to a final concentration of 0.5 mg/ml and incubating cells for a further 4 h at 37° C. The blue formazan that is formed by mitochondrial dehydrogenases of viable cells was then dissolved over night at 37° C. by adding 10% SDS and 10 mM HCl to a final concentration of 5% SDS and 5 mM HCl. Finally, the absorbance of the solution was read at 570 nm with a reference at 670 nm in a microplate reader Spectramax 340 (Molecular Devices, Sunnyvale, Calif., USA) connected to an Apple Macintosh computer running the program Softmax Pro V1.2.0 (Molecular Devices, Sunnyvale, Calif., USA).

[2] = test system: white blood cells (WBC), lymphocytes (LYM), neutrophils (NEU); assay: Myelosuppressive effects of carboplatin in balb/c mice, cytoprotection; type: in vivo
Excerpt: A control group received vehicle (saline) and saline instead of carboplatin.

pig heart = conditions: pigs; cited from earlier work
[3] = cited from earlier work
[4] = Manganese urine excretion 0-24 h after intravenous injection; conditions: rats; for Mn recovered in 0-24 h urine: iv 0.25 ml, 2.59 μmol Mn (mangafodipir) or 2.52 μmol Mn (calmangafodipir) injected; for Mn in 0-24 h urine as percentage of the injected dose: iv, basal excretion subtracted
Description: To obtain basal content of manganese (Mn) and zinc (Zn) in urine, two additional (control) rats received 0.25 ml saline and were placed in metabolic cages for urine collection over the same period of time. The urine samples were then stored at −80° C. until Mn analysis. Before analysis, the samples were thawed and extensively shaken to obtain homogenous samples. A five ml aliquot was taken from each sample and 5 ml concentrated nitric acid was added. The samples were then resolved in a microwave oven and thereafter diluted with distilled water to a final volume of 50 ml. The Mn content of each sample was analyzed by ICP-MS (Inductively Coupled Plasma Mass Spectrometry). Identical samples of calmangafodipir and mangafodipir as those injected in the rats (i.e., 0.25 ml) were withdrawn and injected into test tubes. These samples were treated in an identical manner to that of the urine samples and analyzed for their Mn content. Results are presented as total 0-24 h urine Mn content (expressed as μmol/kg±S.E.M.) and as percentage (±S.E.M.) of the injected dose. […] A p-value lower than 0.05 was considered as a statistically significant difference.

[5] = Variable humidity XRPD analysis of crystalline forms; type: physicochemical; conditions: 10 mg scale, change of ambient humidity
Excerpt: X-Ray Powder Diffraction (XRPD) is most widely used in the identification and characterization of crystalline solids, each of which produces a distinctive diffraction pattern. Both the positions (corresponding to lattice spacings) and the relative intensity of the lines are indicative of a particular phase and material, providing a “fingerprint” for comparison.

CT26 tumors [6] = assay: Antitumor activity of oxaliplatin with or without calmangafodipir in CT26-bearing immune competent and nude balb/c mice; type: in vivo; conditions: 5 mg/kg calmangafodipir with 10 mg/kg oxaliplatin
Description: When the cells reached ˜50% confluency they were harvested by trypsinization. Briefly, cells were washed with PBS (pH 7.3) and exposed to 0.05% Trypsin/0.53 mM EDTA at 37° C. for ˜5 min. The trypsinization was stopped by adding RPMI 1640 culture medium. Cells were counted and centrifuged at 200×g for 5 min. Thereafter, they were washed in PBS, centrifuged again and resuspended in PBS at a concentration of 2×10^6/350 μl for injection into mice. Immune competent balb/c female mice (balb/c) and immune incompetent nude female balb/c mice (blab/c nu/nu) between 6 and 8 weeks of age were used, as described by Laurent et al., 2005. Briefly, each mouse was injected subcutaneously in the back of the neck with 2×10^6 of CT26 cells at day 0. After 7 days (day 7) when the tumors were detectable, the tumor size was determined with a caliper and mice were grouped (5 in each group) so that the sizes of the tumors were not statistically different by group. Groups of mice (5 in each group, as illustrated in FIG. 14) were injected i.v. with saline or 5 mg/kg calmangafodipir (lot #11AK0105B) 30 minutes prior to i.p. administration of 10 mg/kg oxaliplatin (diluted in 5% glucose) or 5% glucose. Mice received in addition saline or 5 mg/kg calmangafodipir 24 hours later (day 8). The mice were sacrificed on day 10 and the tumors were excised and wet weights were determined. The results are presented in a graph for the various treatments (mean±S.E.M.).

human U1810 NSCLC cells = assay: MTT viability assay, cytotoxic activity; type: cell-based; conditions: for IC50: 48 h, MTT, read-out: IC50 (concentration causing 50% inhibition of viability)
Description: (§1) The viability of U1810 or LLC1 cells in the presence of increasing concentrations of calmangafodipir or mangafodipir is presented as concentration response curves (mean±S.D.). The individual curves were fitted to the sigmoidal variable slope response logistic equation (Graphpad Prism, version 5.02). From this analysis the concentrations causing 50% inhibition (IC50) of the test substances were calculated.

[7] = Mn content of brain, pancreas and liver after repeated intravenous injections; conditions: rats, 39 iv doses, 72 μmol/kg manganese each, 3 times a week for 13 weeks
Description: After the 13-week administration period, the rats were sacrificed and the brains and pancreas were dissected out and approximately 0.5 g samples were stored frozen until Mn analysis. The Mn content of each sample was analyzed by ICP-MS. Results are expressed as μg/g wet weight±S.E.M. Statistical difference between the mangafodipir group and the calmangafodipir group, with respect to Mn content, was tested by a paired Student's t-test. A p-value lower than 0.05 was considered as a statistically significant difference.

white blood cells (WBC) = assay: Myelosuppressive effects of oxaliplatin in balb/c mice, cytoprotection
Description: One day before (baseline) as well as 3 and 6 days after oxaliplatin treatment 50 μl EDTA blood samples were taken from the orbital venous plexus with a glass capillary. The blood samples were analyzed using the automated system CELL-DYN® Emerald (Abbott Diagnostics) for the content of white blood cells (WBC), lymphocytes (LYM), neutrophils (NEU) and platelets (PLC). […] A control group received instead of oxaliplatin vehicle (5% glucose) and saline. […] The statistical differences between treatment groups, where appropriate, were tested by an unpaired Student's t-test. A p-value lower than 0.05 was considered as a statistically significant difference.

CT26 tumors [8] = assay: Antitumor activity of oxaliplatin with or without calmangafodipir in CT26-bearing mice; type: in vivo, balb/c mice
Description: When the cells reached ˜50% confluency they were harvested by trypsinization. Briefly, cells were washed with phosphate based saline (PBS) (pH 7.3) and exposed to 0.05% Trypsin/0.53 mM EDTA at 37° C. for ˜5 min. The trypsinization was stopped by adding RPMI1640 culture medium. Cells were counted and centrifuged at 200×g for 5 min. Thereafter, they were washed in PBS, centrifuged again and resuspended in PBS at a concentration of 2×10^6/350 μl for injection into mice. Balb/c female mice between 6 and 8 weeks of age were used, as described by Laurent et al., 2005. Briefly, each mouse was injected subcutaneously in the back of the neck with 2×10^6 of CT26 cells at day 0. After 7 days (day 7) when the tumors were detectable, the tumor size was determined with a caliper and mice were grouped (5 in each group) so that the sizes of the tumors were not statistically different by group. Oxaliplatin±calmangafodipir (lot #11AK0105B) was injected and one group of mice received vehicle (0.9% saline+5% glucose) treatment alone. In a first series of experiments, mice were injected i.v. with saline or 50 mg/kg calmangafodipir 30 minutes prior to i.p. administration of 20 mg/kg oxaliplatin (diluted in 5% glucose) or 5% glucose. These mice received in addition saline or 50mg/kg calmangafodipir 24 hours later (day 8). In another series of experiments, mice were injected i.v. with saline or 5 mg/kg calmangafodipir 30 minutes […] (diluted in 5% glucose) or 5% glucose, and saline or 5 mg/kg calmangafodipir 24 hours later (day 8). The mice were killed on day 10 and the tumors were excised and wet weights were determined.

[9] = Exposure of solids at 25° C./60% RH and 40° C./75% RH (water absorption); type: physicochemical; conditions: 7 days at 25° C./60% RH and 40° C./75% RH
Description: Furthermore, the preparation of a single active pharmaceutical ingredient reduces the cost of manufacture of a treatment dosage. In addition, the need for dosing of a single material reduces the chance for errors in the formulation of the product.
In a 4:1 ratio approximately 200 mg of calfodipir (CaDPDP) and 50 mg of mangafodipir (MnDPDP) were weighed into a 40 mL vial and dissolved in 40 mL of DI water at room temperature to generate a yellow solution. The yellow aqueous solution was spray dried using a Buchi Mini-Spray Dryer B-290 while attached to the Buchi dehumidifier B-296 as an air conditioner allowing the intake of air from the laboratory. Spray drying optimization experiments were performed at elevated inlet temperatures (220° C.) with varying feed rates (20, 30, 40, 50 and 60%). Recovery of product ranged from 180-230 mg.

LLC1 NSCLC cells = assay: MTT viability assay, cytotoxic activity; type: cell-based, murine; conditions: 48 h
Description: as §1

[10] = rats; cited from earlier work
[11] = humans, diagnostic MR imaging dose iv; cited from earlier work
[12] = one patient, cited from earlier work
[13] = rats, single 5 μmol/kg b.w., cited from earlier work

SMILES: [Ca+2].[Cl-].[Cl-] [CaCl2]
- cytotoxic activity [1]: Neither ZnDPDP, ZnPLED nor CaCl2 displayed any cytotoxic activity at all

SMILES: N.N.O=C([O-])C1(C(=O)[O-])CCC1.[Pt+2] [Carboplatin, carboplatin]
- decrease in WBC, as well as in NEU and LYM ([2]; carboplatin 125 mg/kg alone, 3 days after): approximately 50%

SMILES: Cc1ncc(CO)c(CN(CCN(CC(=O)O)Cc2c(CO)cnc(C)c2O)CC(=O)O)c1O [MnPLED, N,N′-dipyridoxyl ethylenediamine-N,N′-diacetic acid]
- cytotoxic activity relative to mangafodipir [1]: ~10 times
- protection against ischemia-reperfusion-induced myocardial infarction (pig heart): significantly reduced myocardial infarct size

SMILES: Cc1ncc(CO)c(CN(CCN(CC(=O)[O-])Cc2c(CO)cnc(C)c2O)CC(=O)[O-])c1O.[Zn+2] [ZnPLED]
- cytotoxic activity [1]: Neither ZnDPDP, ZnPLED nor CaCl2 displayed any cytotoxic activity at all
- stability of complex relative to manganese counterpart ([3]; higher stability): 1000 times

SMILES: Cc1ncc(COP(=O)([O-])O)c(CN(CCN(CC(=O)O)Cc2c(COP(=O)([O-])O)cnc(C)c2O)CC(=O)O)c1O.Cc1ncc(COP(=O)([O-])O)c(CN(CCN(CC(=O)O)Cc2c(COP(=O)([O-])O)cnc(C)c2O)CC(=O)O)c1O.Cc1ncc(COP(=O)([O-])O)c(CN(CCN(CC(=O)O)Cc2c(COP(=O)([O-])O)cnc(C)c2O)CC(=O)O)c1O.Cc1ncc(COP(=O)([O-])O)c(CN(CCN(CC(=O)O)Cc2c(COP(=O)([O-])O)cnc(C)c2O)CC(=O)O)c1O.Cc1ncc(COP(=O)([O-])O)c(CN(CCN(CC(=O)O)Cc2c(COP(=O)([O-])O)cnc(C)c2O)CC(=O)O)c1O.[Ca+2].[Ca+2].[Ca+2].[Ca+2].[Mn+2] [calmangafodipir]
- Mn recovered in 0-24 h urine [4]: 1.27 ± 0.07 µmol
- Mn in 0-24 h urine as percentage of the injected dose [4]: 50.5±2.6%
- time within which form conversions occur [5]: ≤ 3 h
- influence on antitumor effect of oxaliplatin (CT26 tumors [6]; immune competent and immune incompetent mice): did not have any negative influence on the antitumor effect of oxaliplatin
- mean tumor weight compared to controls (CT26 tumors [6]; immune competent mice): statistically significantly reduced
- mean tumor weight compared to controls (CT26 tumors [6]; immune deficient mice): no such reduction was seen
- effect on carboplatin-induced decreases in WBC, NEU and LYM ([2]; calmangafodipir 3 mg/kg with carboplatin 125 mg/kg): abolished these decreases
- shape of dose-response of myeloprotection ([2]; calmangafodipir 1, 3, 10 or 30 mg/kg with carboplatin 125 mg/kg): bell shaped appearance
- cytotoxic activity relative to mangafodipir [1]: about 20 times
- IC50 ratio between mangafodipir and calmangafodipir (potency relative to mangafodipir) (human U1810 NSCLC cells): about 28 times
- IC50 (human U1810 NSCLC cells): 22.7 µM
- Mn brain content [7]: 0.74±0.01 μg/g w.w.
- Mn content in the pancreas [7]: 3.35 ± 0.19 µmol/kg
- fall in WBC (white blood cells (WBC); 12.5 mg/kg oxaliplatin plus 5 mg/kg calmangafodipir iv 30 min before and 24 h after): about 25%
- influence on antitumor effect of oxaliplatin (CT26 tumors [8]; 5 mg/kg calmangafodipir iv with 10 mg/kg oxaliplatin): statistically significant better antitumor effect
- influence on antitumor effect of oxaliplatin (CT26 tumors [8]; 50 mg/kg calmangafodipir iv with 20 mg/kg oxaliplatin): did not have any negative influence on the antitumor effect of oxaliplatin
- appearance of solid after exposure [9]: remained a free flowing solid
- potency to kill cells compared with mangafodipir (LLC1 NSCLC cells): significantly more potent than mangafodipir

SMILES: Cc1ncc(COP(=O)(O)O)c(CN(CCN(CC(=O)O)Cc2c(COP(=O)(O)O)cnc(C)c2O)CC(=O)O)c1O [fodipir, N,N′-bis-(pyridoxal-5-phosphate)-ethylenediamine-N,N′-diacetic acid]
- cytotoxic activity relative to mangafodipir [1]: about 20 times
- affinity of zinc relative to manganese for the chelator ([3]; higher affinity of zinc): about 1000 times
- affinity of calcium relative to manganese for the chelator ([3]; lower affinity of calcium): about 10^6 times
- affinity of calcium relative to zinc for the chelator ([3]; lower affinity of calcium): about 10^9 times

SMILES: Cc1ncc(COP(=O)(O)O)c(CN(CCN(CC(=O)O)Cc2c(COP(=O)(O)O)cnc(C)c2O)CC(=O)O)c1O.[Mn] [mangafodipir, manganese N,N′-bis-(pyridoxal-5-phosphate)-ethylenediamine-N,N′-diacetic acid]
- Mn recovered in 0-24 h urine [4]: 0.60 ± 0.04 µmol
- Mn in 0-24 h urine as percentage of the injected dose [4]: 23.1±1.4%
- protection against ischemia-reperfusion-induced myocardial infarction (pig heart): does not protect the pig heart against ischemia-reperfusion-induced myocardial infarction
- IC50 (human U1810 NSCLC cells): 633 µM
- Mn content in the pancreas [7]: 5.54 ± 0.45 µmol/kg
- fall in WBC (white blood cells (WBC); 12.5 mg/kg oxaliplatin plus 1 mg/kg mangafodipir iv): around 50%
- fall in WBC (white blood cells (WBC); 12.5 mg/kg oxaliplatin plus 10 mg/kg mangafodipir iv): around 50%
- fetal skeletal abnormalities [10]: caused fetal skeletal abnormalities in rats
- administered manganese released [11]: about 80%
- neurotoxic symptoms ([12]; 14 of 15 cycles with mangafodipir pretreatment, accumulated 1275 mg/m^2 oxaliplatin): No neurotoxic symptoms were detected
- neutropenia ([12]; during chemotherapy cycles): Neutropenia did not occur
- Mn content of the pancreas relative to basal value ([13]; after 2 hours): approximately 10 times
- Mn content of the pancreas relative to basal value ([13]; after 24 hours): about 5 times

SMILES: O=C1[O][Pt]2([NH][C@@H]3CCCC[C@H]3[NH]2)[O]C1=O [oxaliplatin]
- fall in WBC (white blood cells (WBC); single dose 12.5 mg/kg oxaliplatin alone, 6 days after): more than 80%
- reduction in tumor weight (CT26 tumors [8]; single treatment 20 mg/kg oxaliplatin i.p., day 10): more than 50%
